# Tests used:
# [1] = no reference given; cited from earlier work
# CYP2C8 = molecular target: T1, CYP2C8 (Homo sapiens, UniProt P10632); experiment: IC50-shift experiment, CYP2C8 in HLMs; assay type: in vitro ADME; parameters: 0.20 mg/mL HLMs or 0.20 mg/mL RLMs; from tissue; host or cells: human liver microsomes; details: for IC50: amodiaquine 3 μM
# T1 sequence (P10632 1-490): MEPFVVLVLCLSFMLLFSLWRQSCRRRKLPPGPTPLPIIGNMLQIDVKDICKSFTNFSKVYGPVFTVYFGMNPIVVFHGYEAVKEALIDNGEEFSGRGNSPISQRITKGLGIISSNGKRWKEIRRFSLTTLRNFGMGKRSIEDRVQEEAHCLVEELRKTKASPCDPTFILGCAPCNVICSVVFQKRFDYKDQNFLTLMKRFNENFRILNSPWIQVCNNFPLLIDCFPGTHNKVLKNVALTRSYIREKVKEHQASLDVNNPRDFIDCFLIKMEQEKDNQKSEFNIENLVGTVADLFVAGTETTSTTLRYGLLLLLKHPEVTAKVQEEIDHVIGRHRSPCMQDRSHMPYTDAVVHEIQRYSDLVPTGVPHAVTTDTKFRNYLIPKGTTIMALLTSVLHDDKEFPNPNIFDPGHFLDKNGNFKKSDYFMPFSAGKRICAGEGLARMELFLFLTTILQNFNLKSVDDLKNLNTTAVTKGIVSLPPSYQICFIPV
# Method: The components of the incubation system were as follows: 0.20 mg/mL HLMs or 0.20 mg/mL RLMs, 0.1 M Tris-HCl, vortioxetine, and the probe substrates of each enzyme. In the study of Km’s (Michaelis–Menten constant) experiment, midazolam (1, 2, 5, 10, 20, 50 and 100 μM in HLMs and RLMs) corresponded to CYP3A4/3A; bupropion (10, 20, 50, 100, 200, 500, 1,000 and 2000 μM in HLMs; 1, 2, 5, 10, 20, 50, 100 and 200 μM in RLMs) corresponded to CYP2B6/2B; amodiaquine (5, 10, 20, 50, 100 and 200 μM in HLMs; 10, 20, 50, 100, 200, 500 μM in RLMs) corresponded to CYP2C8/CYP2C-1; losartan (1, 2, 5, 10, 20, 50, 100, 200 μM in HLMs; 10, 20, 50, 100, 200, 500 and 1,000 μM in RLMs) corresponded to CYP2C9/CYP2C-2; mephenytoin (20, 50, 100, 200, 500 and 1,000 μM in HLMs; 5, 10, 20, 50, 100, 200, 500 and 1,000 μM in RLMs) corresponded to CYP2C19/CYP2C-3; and dextromethorphan (1, 2, 5, 10, 20, 50 and 100 μM in HLMs and RLMs) corresponded to CYP2D6/CYP2D. After 5.0 min of preincubation in the shaking water bath, the reaction was started with the addition of 1.0 mM NADPH. The incubated temperature at 37°C for 30 min. After the incubation, the enzyme reaction was stopped by cooling at −80°C, and 200 μL of acetonitrile and 20 μL of internal standard diazepam (200 ng/mL) were added for protein precipitation. […]
# IC50-shift was used to investigate whether the drug produced time-dependent inhibition (TDI) of the enzyme. […] During the experiment, the individual substrates midazolam (4 μM), bupropion (40 μM), amodiaquine (3 μM), losartan (8 μM), mephenytoin (90 μM), and dextromethorphan (10 μM) were determined with vortioxetine IC50-shift in HLMs. […]
# All experiments results were detected by UPLC-MS/MS, which equipped with a Waters Acquity UPLC system (Milford, MA, United States) and a Waters Xevo TQ-S triple quadrupole tandem mass spectrometer with an electrospray ionization source (Milford, MA, United States). […]
# IC50 values and enzyme kinetic parameters were calculated by Graphpad Prism 6.0 (GraphPad software Inc., CA, United States). […] Data for each experiment were expressed as mean ± SD (n = 3).
smiles,measurement,setting,value
Cc1ccc(Sc2ccccc2N2CCNCC2)c(C)c1 [vortioxetine],plasma protein (binding),[1],99%
same,IC50,CYP2C8; 30 min preincubation with 1.0 mM NADPH,18.7 µM
same,IC50,CYP2C8; 30 min preincubation without NADPH,18.2 µM
same,IC50 shift at 30 min,"CYP2C8; human, human liver microsomes, probe amodiaquine (3 μM), ratio IC50 (−) NADPH to IC50 (+) NADPH, read-out: IC50 fold shift",0.97

# Source: article PMC10544575, “Inhibitory mechanism of vortioxetine on CYP450 enzymes in human and rat liver microsomes” (Frontiers in Pharmacology, 2023)
